The target in data set [1] is T1, NAD kinase 1 (Listeria monocytogenes serovar 1/2a (strain ATCC BAA-679 / EGD-e), UniProt Q8Y8D7).
T1 sequence (Q8Y8D7 whole entry): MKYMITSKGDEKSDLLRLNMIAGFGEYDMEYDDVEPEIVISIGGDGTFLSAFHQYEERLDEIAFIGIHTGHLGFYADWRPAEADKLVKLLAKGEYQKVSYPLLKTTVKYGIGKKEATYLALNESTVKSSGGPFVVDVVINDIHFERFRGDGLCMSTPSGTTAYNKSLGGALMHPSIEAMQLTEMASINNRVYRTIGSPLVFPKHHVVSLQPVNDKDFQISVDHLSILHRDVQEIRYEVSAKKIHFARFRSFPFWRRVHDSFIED
Put plainly: Inhibition of His-tagged Listeria monocytogenes NADK1 in presence of glucose-6-phosphate dehydrogenase and NADP measured by spectrophotometry method.

Data set [2] has as its system Staphylococcus aureus. The data set is described as follows: Antibacterial activity against Staphylococcus aureus S25 strain at 1 ug/ml assessed as decrease in number of colony forming units relative to control. Format: functional, organism-based. The settings on record: dose 1.0 µg/ml.
The nature of data set [3]: Inhibition of His-tagged Staphylococcus aureus NADK in presence of glucose-6-phosphate dehydrogenase and NADP measured by spectrophotometry method.
Data set [4] has as its system HeLa. Put plainly: Cytotoxicity against human HeLa cells at 10 uM assessed as change in cell shape and multiplication after 96 hrs. The class given is toxicity, cell-based.
Data set [5] relates to Staphylococcus aureus. Put plainly: Antibacterial activity against Staphylococcus aureus S25 strain at 8 ug/ml assessed as decrease in number of colony forming units relative to control. The class given is functional, organism-based. The settings on record: dose 8.0 µg/ml.
For data set [6], the system named is Staphylococcus aureus. The data set is described as follows: Antibacterial activity against Staphylococcus aureus S25 strain at 10 ug/ml assessed as decrease in number of colony forming units relative to control. The note with it: dose 10.0 µg/ml. Format: functional, organism-based.

SMILES strings stand for the structures. Active and inactive are the calls of the source. No cut-off for these calls is given here.

In the case of `NC[C@H]1O[C@@H](n2c(Br)nc3c(N)ncnc32)[C@H](O)[C@@H]1O`, the IC50 in data set [1] was 300 µM.

Take `NC[C@H]1O[C@@H](n2c(SCC(=O)NC[C@H]3O[C@@H](n4cnc5c(N)ncnc54)[C@H](O)[C@@H]3O)nc3c(N)ncnc32)[C@H](O)[C@@H]1O`: the result in data set [2] was Active. Moreover, the Ki worked out at 50 µM in data set [3] and 30 µM in data set [1]. Further, in data set [4], the Activity entry is reported as “Non-Toxic”.

As to `CN[C@H](CC(C)C)C(=O)N[C@H]1C(=O)N[C@@H](CC(N)=O)C(=O)N[C@H]2C(=O)N[C@H]3C(=O)N[C@H](C(=O)N[C@H](C(=O)O)c4cc(O)cc(O)c4-c4cc3ccc4O)[C@H](O)c3ccc(c(Cl)c3)Oc3cc2cc(c3O[C@@H]2O[C@H](CO)[C@@H](O)[C@H](O)[C@H]2O[C@H]2C[C@](C)(N)[C@H](O)[C@H](C)O2)Oc2ccc(cc2Cl)[C@H]1O`, the outcome in data set [5] was Active.

Take `Nc1ncnc2c1ncn2[C@@H]1O[C@H](COCC#Cc2nc3c(N)ncnc3n2[C@@H]2O[C@H](CO)[C@@H](O)[C@H]2O)[C@@H](O)[C@H]1O`: the outcome in data set [2] was Active. Besides, the Ki was found to be 15 µM in data set [3] and 20 µM in data set [1]. The Activity result in data set [4] is reported as “Non-Toxic”.

As for `Nc1ncnc2c1ncn2[C@@H]1O[C@H](CNCC#Cc2nc3c(N)ncnc3n2[C@@H]2O[C@H](CO)[C@@H](O)[C@H]2O)[C@@H](O)[C@H]1O`, in data set [6], the outcome was Active. In addition, in data set [4], the Activity result is recorded as “Non-Toxic”.

The term IC50 denotes the concentration that inhibits the measured activity by half. One may read the Ki as a measure of affinity in units of concentration, obtained from inhibition or displacement.

The record behind these values is ChEMBL document CHEMBL5050830, “Novel antibacterial compounds” (2013).
